Among the data in US10344024B2, “Compounds as ROR gamma modulators” (Glenmark Pharmaceuticals S.A., priority 2015, dated 2019) are inhibition and IC50 values, retold here.

This assay deals with T1, GST-tagged ROR gamma ligand binding domain (LBD) (Homo sapiens, UniProt P51449).
T1 construct: purchased Invitrogen
T1 sequence (P51449 269-508 limits assumed): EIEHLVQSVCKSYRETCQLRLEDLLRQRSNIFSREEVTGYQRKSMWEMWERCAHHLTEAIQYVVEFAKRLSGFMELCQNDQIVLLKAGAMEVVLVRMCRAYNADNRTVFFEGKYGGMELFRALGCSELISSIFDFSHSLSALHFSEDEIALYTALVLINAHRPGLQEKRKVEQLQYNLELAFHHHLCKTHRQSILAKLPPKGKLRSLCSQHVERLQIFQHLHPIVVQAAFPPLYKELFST
In words: TR-FRET assay for ROR gamma (LanthaScreen co-activator peptide recruitment). It counts as biochemical. The note with it: for inhibition at 1 µM: compound concentration 1 μM; for inhibition at 1 µM / inhibition at 10 µM: TR-FRET ratio 520/495, percent of control; for inhibition at 10 µM: compound concentration 10 μM; for IC50: from dose response curve, nonlinear regression, read-out: IC50 range. The text has this: The compounds described herein were screened for ROR gamma modulator activity using the TR-FRET assay (LanthaScreen™ available from Invitrogen of Carlsbad, Calif.) as described in JBC 2011, 286, 26: 22707-10; and Drug Metabolism and Disposition 2009, 37, 10: 2069-78.
Binding of the co-activator peptide, causes an increase in the TR-FRET signal while binding of an antagonist decreases the recruitment of the co-activator peptide, causing a decrease in the TR-FRET signal compared to control with no compound. The assay was performed using a two-step procedure, pre-incubation step with the compound followed by the detection step on addition of the anti-GST tagged terbium (Tb) and fluorescein tagged fluorophores as the acceptor.
Test compounds or reference compounds such as T0901317 (Calbiochem) were dissolved in dimethylsulfoxide (DMSO) to prepare 10.0 mM stock solutions and diluted to the desired concentration. The final concentration of DMSO in the reaction was 4% (v/v). The assay mixture was prepared by mixing 10 nM of the GST-tagged ROR gamma ligand binding domain (LBD) in the assay buffer containing 25 mM HEPES (pH 7.4), 100 mM NaCl, 5 mM DTT and 0.01% BSA with or without the desired concentration of the compound. The reaction was incubated at 22° C. for 1 hour. The pre-incubation step was terminated by addition of the detection mixture containing 300 nM Fluorescein-D22 co-activator peptide and 10 nM lantha screen Tb-anti GST antibody into the reaction mixture.
After shaking for 5 minutes the reaction was further incubated for 1 hour at room temperature and read at 4° C. on an Infinite F500 reader as per the kit instructions (Invitrogen). The inhibition of test compound was calculated based on the TR-FRET ratio of 520/495. The activity was calculated as a percent of control reaction. IC50 values were calculated from dose response curve by nonlinear regression analysis using GraphPad Prism software.
In general terms: In TR-FRET formats the signal depends on donor and acceptor labels being close together.

Molecules are shown by their SMILES.

For orientation: inhibition means the change of the read-out against control, counted positive when it falls. Broadly, the IC50 is the concentration that gives 50% inhibition. On to `Cc1ccc(-c2nccnc2-c2ccc(NC(=O)Cc3ccc(C(F)(F)C(C)O)cc3)cc2)c(C)c1` (stereo not shown) [Example 51, 2-(4-(1,1-Difluoro-2-hydroxypropyl)phenyl)-N-(4-(3-(2,4-dimethylphenyl)pyrazin-2-yl)phenyl)acetamide], for which the inhibition at 1 µM was found to be 73.2%, the inhibition at 10 µM amounted to 81% and the IC50 is less than 50 nM.
For `CC(O)C(F)(F)c1ccc(CC(=O)Nc2ccc(-c3nccnc3N[C@@H](C)c3ccccc3Cl)c(F)c2)cc1` (stereo partly drawn) [Example 74, N-(4-(3-(((S)-1-(2-Chlorophenyl)ethyl)amino)pyrazin-2-yl)-3-fluorophenyl)-2-(4-(1,1-difluoro-2-hydroxypropyl)phenyl)acetamide], in that order: 79.2%, 89.9% and 50 to 100 nM.
For `CCC(F)(F)c1ccc(CC(=O)Nc2ccc(-c3nccnc3-c3ccc(C#N)cc3)cc2)cc1` [Example 16, N-(4-(3-(4-Cyanophenyl)pyrazin-2-yl)phenyl)-2-(4-(1,1-difluoropropyl)phenyl)acetamide], the inhibition at 1 µM amounted to 69.9% and the inhibition at 10 µM worked out at 60.5%.
As to `CCC(F)(F)c1ccc(CC(=O)Nc2ccc(-c3nccnc3-c3ccc(Cl)cc3)cc2)cc1` [Example 1, N-(4-(3-(4-chlorophenyl)pyrazin-2-yl)phenyl)-2-(4-(1,1-difluoropropyl)phenyl) acetamide], the inhibition at 1 µM is 80.9%, the inhibition at 10 µM was found to be 81.5% and the concentration for half-maximal inhibition (IC50) is less than 50 nM.
For the compound `CCC(F)(F)c1ccc(CC(=O)Nc2ccc(-c3nccc(=O)n3-c3ccc(F)cc3Cl)cc2)cc1` [Example 49, N-(4-(1-(2-Chloro-4-fluorophenyl)-6-oxo-1,6-dihydropyrimidin-2-yl)phenyl)-2-(4-(1,1-difluoropropyl)phenyl)acetamide], the inhibition at 1 µM is 84%, the inhibition at 10 µM came out at 88.8% and the IC50 is less than 50 nM.
For `CCC(F)(F)c1ccc(CC(=O)Nc2ccc(-c3nccnc3O[C@H](C)c3ccccc3Cl)cc2)cc1` [Example 83, (R)-N-(4-(3-(1-(2-Chlorophenyl)ethoxy)pyrazin-2-yl)phenyl)-2-(4-(1,1-difluoropropyl)phenyl)acetamide], in that order: 79.7%, 78.2% and 50 to 100 nM.
For `CCC(F)(F)c1ccc(CC(=O)Nc2ccc(-n3nc(C)cc3-c3ccc(Cl)cc3Cl)cc2)cc1` [Example 38, N-(4-(5-(2,4-Dichlorophenyl)-3-methyl-1H-pyrazol-1-yl)phenyl)-2-(4-(1,1-difluoropropyl)phenyl)acetamide], in that order: 70.7%, 74.9% and 100 to 500 nM.
For `CCC(F)(F)c1ccc(CC(=O)Nc2ccc(-c3nccnc3O[C@H](C)c3ccccc3)cc2)cc1` [Example 79, (R)-2-(4-(1,1-Difluoropropyl)phenyl)-N-(4-(3-(1-phenylethoxy)pyrazin-2-yl)phenyl)acetamide], in that order: 69.5%, 85.8% and 100 to 500 nM.
For the compound `CCC(F)(F)c1ccc(CC(=O)Nc2ccc(-c3nccnc3-c3ccc(F)cc3Cl)cc2)cc1` [Example 45, N-(4-(3-(2-Chloro-4-fluorophenyl)pyrazin-2-yl)phenyl)-2-(4-(1,1-difluoropropyl)phenyl)acetamide], the inhibition at 1 µM came out at 81.1%, the inhibition at 10 µM was determined as 80.8% and the IC50 is less than 50 nM.
For `Cc1ccc([C@H](C)Nc2nccnc2-c2ccc(NC(=O)Cc3ccc(C(F)(F)C(C)O)cc3)cc2)c(C)c1` (stereo partly drawn) [Example 95, 2-(4-(1,1-Difluoro-2-hydroxypropyl)phenyl)-N-(4-(3-(((S)-1-(2,4-dimethylphenyl)ethyl)amino)pyrazin-2-yl)phenyl)acetamide], in that order: 93.7%, 95.4% and less than 50 nM.
For `CC(O)C(F)(F)c1ccc(CC(=O)Nc2ccc(-c3nccnc3-c3ccc(F)c(F)c3)cc2)cc1` (stereo not shown) [Example 9, 2-(4-(1,1-Difluoro-2-hydroxypropyl)phenyl)-N-(4-(3-(3,4-difluorophenyl)pyrazin-2-yl)phenyl)acetamide], in that order: 55.2%, 72.1% and more than 500 nM.
For `CCC(F)(F)c1ccc(CC(=O)Nc2ccc(-c3cccnc3-c3ccc(Cl)cc3)cc2)cc1` [Example 34, N-(4-(2-(4-Chlorophenyl)pyridin-3-yl)phenyl)-2-(4-(1,1-difluoropropyl)phenyl)acetamide], the inhibition at 1 µM is 57.9% and the inhibition at 10 µM stood at 66.8%.
For the compound `CCC(F)(F)c1ccc(CC(=O)Nc2ccc(-c3nccnc3OCc3ccccc3)cc2)cc1` [Example 75, N-(4-(3-(Benzyloxy)pyrazin-2-yl)phenyl)-2-(4-(1,1-difluoropropyl)phenyl)acetamide], the inhibition at 1 µM came to 75.7%, the inhibition at 10 µM was 84.2% and the IC50 lay in the range of 50 to 100 nM.
Regarding `Cc1ccc([C@@H](C)Oc2nccnc2-c2ccc(NC(=O)Cc3ccc(C(F)(F)C(C)O)cc3)cc2)c(C)c1` (stereo partly drawn) [Example 98, 2-(4-(1,1-Difluoro-2-hydroxypropyl)phenyl)-N-(4-(3-((R)-1-(2,4-dimethylphenyl)ethoxy)pyrazin-2-yl)phenyl)acetamide], the inhibition at 1 µM was found to be 89.5%, the inhibition at 10 µM is 89% and the IC50 is less than 50 nM.
Regarding `CCC(F)(F)c1ccc(CC(=O)Nc2ccc(-c3nccnc3-c3ccccc3)cc2)cc1` [Example 15, 2-(4-(1,1-Difluoropropyl)phenyl)-N-(4-(3-phenylpyrazin-2-yl)phenyl)acetamide], the inhibition at 1 µM was 72.2%, the inhibition at 10 µM was found to be 80.6% and the IC50 was 100 to 500 nM.
`CCC(F)(F)c1ccc(CC(=O)Nc2ccc(-c3nccnc3-c3ccc(OC)cc3)cc2)cc1` [Example 27, 2-(4-(1,1-Difluoropropyl)phenyl)-N-(4-(3-(4-methoxyphenyl)pyrazin-2-yl)phenyl)acetamide]: the inhibition at 1 µM was 78.6%, the inhibition at 10 µM amounted to 83.5% and the IC50 was less than 50 nM.
In the case of `CCC(F)(F)c1ccc(CC(=O)Nc2ccc(-c3nccnc3N[C@@H](C)c3cccc(Cl)c3)cc2)cc1` [Example 64, (S)-N-(4-(3-((1-(3-Chlorophenyl)ethyl)amino)pyrazin-2-yl)phenyl)-2-(4-(1,1-difluoropropyl)phenyl)acetamide], the inhibition at 1 µM amounted to 76.2%, the inhibition at 10 µM was determined as 84.9% and the IC50 was in the range of 100 to 500 nM.
For `CCC(F)(F)c1ccc(CC(=O)Nc2ccc(-c3nccnc3-c3ccc(Cl)cc3Cl)cc2)cc1` [Example 50, N-(4-(3-(2,4-Dichlorophenyl)pyrazin-2-yl)phenyl)-2-(4-(1,1-difluoropropyl)phenyl)acetamide], in that order: 83.2%, 83% and less than 50 nM.
Consider `CCC(F)(F)c1ccc(CC(=O)Nc2ccc(-c3nccnc3N3CCN(C(C)=O)CC3)cc2)cc1` [Example 24, N-(4-(3-(4-Acetylpiperazin-1-yl)pyrazin-2-yl)phenyl)-2-(4-(1,1-difluoropropyl)phenyl)acetamide], for which the inhibition at 1 µM worked out at 61.6% and the inhibition at 10 µM turned out to be 83.6%.
For `CCC(F)(F)c1ccc(CC(=O)Nc2ccc(-c3nccnc3N(C)c3ccc(Cl)cc3)cc2)cc1` [Example 55, N-(4-(3-((4-Chlorophenyl)(methyl)amino)pyrazin-2-yl)phenyl)-2-(4-(1,1-difluoropropyl)phenyl)acetamide], in that order: 56.5% and 64.6%.
For `CCC(F)(F)c1ccc(CC(=O)Nc2ccc(-c3nccnc3N3CCN(CCOC)CC3)cc2)cc1` [Example 41, 2-(4-(1,1-Difluoropropyl)phenyl)-N-(4-(3(4-(2-methoxyethyl)piperazin-1-yl)pyrazin-2-yl)phenyl)acetamide], in that order: 4.2% and 48.7%.
As for `CC(O)C(F)(F)c1ccc(CC(=O)Nc2ccc(-c3nccnc3O[C@@H](C)c3ccccc3Cl)cc2)cc1` (stereo partly drawn) [Example 86, N-(4-(3-((S)-1-(2-Chlorophenyl)ethoxy)pyrazin-2-yl)phenyl)-2-(4-(1,1-difluoro-2-hydroxypropyl)phenyl)acetamide], the inhibition at 1 µM was determined as 84.5%, the inhibition at 10 µM amounted to 86% and the IC50 is 50 to 100 nM.
